Results published in patent US4794174A, “5'deoxy-5'-substituted adenosines” (Southern Research Institute, priority 1987, dated 1988).
Entries after “also recorded” stand apart in the source; their conditions may differ.

Columns and labels:
[1] = target: T1, AdoMet-DC from MRC5 Cells (Homo sapiens, UniProt P17707); assay: Effect of compounds on AdoMet-DC from MRC5 cells (crude enzyme preparation); assay type: biochemical; settings: AdoMet 30 μM, read-out: ID50 (the source's name)
T1 construct: Effect of Compounds on AdoMet-DC from MRC5 Cells; endogenous in cells; host or cells: MRC5 cells (crude enzyme preparation)
T1 sequence (P17707 68-334 limits assumed): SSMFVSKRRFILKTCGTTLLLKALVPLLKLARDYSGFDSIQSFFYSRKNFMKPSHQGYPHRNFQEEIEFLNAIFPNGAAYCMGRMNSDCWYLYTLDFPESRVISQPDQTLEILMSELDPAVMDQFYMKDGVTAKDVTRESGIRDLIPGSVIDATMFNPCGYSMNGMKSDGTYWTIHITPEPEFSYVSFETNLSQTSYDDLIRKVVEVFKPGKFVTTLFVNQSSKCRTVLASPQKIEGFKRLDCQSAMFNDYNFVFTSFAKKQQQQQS
T1 sequence (P17707 1-67 limits assumed): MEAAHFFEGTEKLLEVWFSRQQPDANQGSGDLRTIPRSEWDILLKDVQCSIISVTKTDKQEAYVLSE
Protocol: Effect of Compounds on AdoMet-DC from MRC5 Cells
mixture contained AdoMet at a concentration of 30 μM. Each inhibitor
was tested at a series of concentrations.

[2] = system: L1210 Cells; assay: Polyamine levels in L1210 cells treated with 25; assay type: cell-based; settings: for Polyamine Content, Putrescine / Polyamine Content, Spermidine / Polyamine Content, Spermine: +100 μM
Source text: (§1) Polyamine Levels in L1210 Cells Treated with --25.

[3] = system: L1210 Cells; assay: Cell number of L1210 cells treated with 25; assay type: cell-based; settings: 96 hrs; +100 μM
Source text: as §1

[4] = system: HCMV; assay: In vitro antiviral activity against cytomegalovirus: HCMV yields in MRC5 cell monolayer cultures; assay type: cell-based
Protocol: The Effects of --25 on HCMV Yields in MRC5
*Treatment with --25 began 72 hours prior to virus adsorption. Culture
fluids were replaced with fresh drug and medium 24 hours before virus
infection, immediately following virus infection, and 3 days p.i.

CN(CCNC(=O)NN)C[C@H]1O[C@@H](n2cnc3c(N)ncnc32)[C@H](O)[C@@H]1O [Compound 16, 5'-Deoxy-5'-[N-methyl-N-[2-(hydrazinecarboxamido)ethyl]aminoadenosine, sesquisulfate dihydrate]
IC50 [1]: 600 nM

CN(CCCNC(=S)NN)C[C@H]1O[C@@H](n2cnc3c(N)ncnc32)[C@@H]2OC(C)(C)O[C@@H]21 [Compound 22, 2',3'-O-Methylethylidene-5'-deoxy-5'-[N-methyl-N-[3-(hydrazinethiocarboxamido)propyl]]aminoadenosine]
IC50 [1]: 1800 nM

CN(CCCNN)C[C@H]1O[C@@H](n2cnc3c(N)ncnc32)[C@H](O)[C@@H]1O [Compound 25, 5'-Deoxy-5'-[N-methyl-N-(3-hydrazinopropyl)]aminoadenosine sesquisulfate 1.8H2 O.0.1EtOH]
IC50 [1]: 8 nM
Polyamine Content, Putrescine ([2]; 24 hrs): 3.16 umol/10^6 Cells
Polyamine Content, Spermidine ([2]; 24 hrs): 0.58 umol/10^6 Cells
Polyamine Content, Spermine ([2]; 24 hrs): 0.20 umol/10^6 Cells
Polyamine Content, Putrescine ([2]; 48 hrs): 4.91 umol/10^6 Cells
Polyamine Content, Spermidine ([2]; 48 hrs): 0.78 umol/10^6 Cells
Polyamine Content, Spermine ([2]; 48 hrs): 0.16 umol/10^6 Cells
Polyamine Content, Putrescine ([2]; 96 hrs): 5.69 umol/10^6 Cells
Polyamine Content, Spermidine ([2]; 96 hrs): 0.65 umol/10^6 Cells
Polyamine Content, Spermine ([2]; 96 hrs): 0.19 umol/10^6 Cells
effect on spermidine, spermine and putrescine levels ([2]; in words, Table 4): decrease in spermidine and spermine levels; also recorded: increase in putrescine levels
Cell Number × 10^-5 per mL [3]: 17 × 10^-5 per mL
CMV Yield (PFU/ml) ([4]; 3.2 μM): 5.8 PFU/ml
CMV Yield (log10 PFU/ml) ([4]; 3.2 μM): 5.8 × 10^5 log10 PFU/ml
CMV Yield (PFU/ml) ([4]; 10 μM): 5.8 PFU/ml
CMV Yield (log10 PFU/ml) ([4]; 10 μM): 6.3 × 10^5 log10 PFU/ml
CMV Yield (PFU/ml) ([4]; 32 μM): 5.8 PFU/ml
CMV Yield (log10 PFU/ml) ([4]; 32 μM): 5.8 × 10^5 log10 PFU/ml
CMV Yield (PFU/ml) ([4]; 100 μM): 5.6 PFU/ml
CMV Yield (log10 PFU/ml) ([4]; 100 μM): 4.2 × 10^5 log10 PFU/ml
CMV Yield (PFU/ml) ([4]; 320 μM): 5.1 PFU/ml
CMV Yield (log10 PFU/ml) ([4]; 320 μM): 1.2 × 10^5 log10 PFU/ml
CMV Yield (PFU/ml) ([4]; 1000 μM): 2.2 PFU/ml
CMV Yield (log10 PFU/ml) ([4]; 1000 μM): 1.4 × 10^2 log10 PFU/ml
inhibition at 10 µM ([4]; Human betaherpesvirus 5, MRC5, 10 μM, read-out: Reduction (%) of CPE at Time of Virus Harvest): 0%
inhibition at 100 µM ([4]; Human betaherpesvirus 5, MRC5, 100 μM, read-out: Reduction (%) of CPE at Time of Virus Harvest): 0%
inhibition at 320 µM ([4]; Human betaherpesvirus 5, MRC5, 320 μM, read-out: Reduction (%) of CPE at Time of Virus Harvest): 0%
